Source: PMC7118210 (Frontiers in Pharmacology, 2020)
Where two headings read alike, the source gives them in different places.

Test: Single-dose pharmacokinetics in rats (plasma, UHPLC/MS/MS)
Type: in vivo, Sprague Dawley rats
Conditions: for MRT last: read-out: MRT0-t; for MRT inf: read-out: MRT0-∞
From the text: Sixty healthy adult Sprague Dawley rats (180-220 g, half male and female) were purchased from the Guangdong Medical Laboratory Animal Center (Guangzhou, Guangdong, China). Thirty Beagle dogs (10-14 kg, half male and female) were purchased from the […] Laboratory Animal Science & Technology Co., Ltd. (Gaoyao, Guangdong, China). All animals were housed under humanized conditions with free access to food and water, and acclimated to the living conditions for at least one week prior to experimentation at the Laboratory Animal Center of the School of Life Sciences, Sun Yat-sen University. Environmental conditions were maintained at 20°C-25°C, 55% ± 15% relative humidity, 12-h light/dark cycles, and 12 air changes per hour. Prior to experimentation, the animals were fasted overnight with water available ad libitum. All animals were healthy based on physical examination and laboratory analyses performed before and after the experiments. At the end of the experiments, the dogs were returned to the Laboratory Animal Center of School of Life Sciences, Sun Yat-sen University. […] All blood samples were transferred into heparin-treated centrifuge tubes and centrifuged for 10 min at 4,000 rpm and 4°C. All human urine samples were mixed and transferred (4 ml) into storage tubes. All biological samples were stored at -80°C. […] The optimal volume and activity in unit volume of enzyme solution [0.2 M acetic acid/water solution: 0.2 M ammonium acetate/water solution, 15:35 (v/v)] were determined through a pretest of the enzyme (rat plasma, 10 μl, 10 U μl^-1; dog plasma, 10 μl, 10 U μl^-1; human plasma, 20 μl, 20 U μl^-1; human urine, 10 μl, 10 U μl^-1). After enzyme incubation, 10 μl of IS solution was added to the plasma and urine samples (2 μg ml^-1 quercetin 3-β-D-glucoside for rat and dog plasma; 583 ng ml^-1 naringin-D4 and 160 ng ml^-1 naringenin-D4 for human plasma; and 9,710 ng ml^-1 naringin-D4 and 6,000 ng ml^-1 naringenin-D4 for human urine). To each fecal sample, 9-fold methanol-normal saline (2:1, v/v) was added, mixed (18,000 rpm, 15 min) by vortexing and centrifuged (10 min, 9,000 rpm, 4°C). Next, 10 μl IS solution (971 ng ml^-1 naringin-D4 and 600 ng ml^-1 naringenin-D4) was added to the supernatants of feces (200 μl) without enzyme incubation. […] The solid material was dissolved with acetonitrile-water (1:1, v/v) and injected into the ultra high-performance liquid chromatography coupled with triple quadrupole mass spectrometry (UHPLC/MS/MS) system as described below. The analysis of nonclinical and clinical samples was performed with a UHPLC/MS/MS system that consisted of a Shimadzu Nexera X2 ultra high-performance liquid chromatography (UHPLC) (Shimadzu Corp., Kyoto, Japan) coupled with an AB Sciex API4000 triple-quadrupole mass spectrometry (MS/MS) system (AB Sciex, Foster City, CA, USA) equipped with an electrospray ionization source and controlled by Analyst (v. 1.6.2) software. […] The injection volume was 10 μl with the flow rate of 0.3 ml min^-1 for plasma, and 0.4 ml min^-1 for urine and feces. The compounds were detected by multiple reaction monitoring in the negative ion electrospray mode. The electrospray source conditions were as follows: ion source gas1 30 psi, ion source gas2 60 psi, curtain gas 20 psi, collisionally activated dissociation (CAD) gas 8 psi, temperature 500°C, and ion spray voltage -4,500 V. Zero air was used for ion source gas1 and ion source gas2 and nitrogen for curtain gas and CAD gas. […] All pharmacokinetic and excretion parameters were expressed as mean ± standard deviation (SD). All mean and SD values were reported to three significant figures. The pharmacokinetic parameters were calculated using the Phoenix WinNonlin software (Version 6.4, Pharsight Corp., Cary, NC, USA) and compared using the Student's t-test (p < 0.05) in SPSS 18.0 (SPSS Inc., Chicago, IL, USA). […]

[1] = both sexes, Sprague Dawley, rat, plasma, iv, 42 mg/kg
[2] = both sexes, Sprague Dawley, rat, plasma, iv, 42 mg/kg, read-out: Cmax
[3] = both sexes, Sprague Dawley, rat, plasma, iv, 42 mg/kg, read-out: Vd
[4] = female, Sprague Dawley, rat, plasma, iv, 42 mg/kg
[5] = female, Sprague Dawley, rat, plasma, iv, 42 mg/kg, read-out: Cmax
[6] = male, Sprague Dawley, rat, plasma, iv, 42 mg/kg
[7] = male, Sprague Dawley, rat, plasma, iv, 42 mg/kg, read-out: Cmax
[8] = naringenin after naringin 168 mg kg^-1 p.o. single dose, rat
[9] = both sexes, Sprague Dawley, rat, plasma, po, 10.5 mg/kg
[10] = both sexes, Sprague Dawley, rat, plasma, po, 21 mg/kg
[11] = both sexes, Sprague Dawley, rat, plasma, po, 42 mg/kg
[12] = both sexes, Sprague Dawley, rat, plasma, po, 168 mg/kg
[13] = female, Sprague Dawley, rat, plasma, po, 10.5 mg/kg
[14] = female, Sprague Dawley, rat, plasma, po, 21 mg/kg
[15] = female, Sprague Dawley, rat, plasma, po, 42 mg/kg
[16] = female, Sprague Dawley, rat, plasma, po, 168 mg/kg
[17] = male, Sprague Dawley, rat, plasma, po, 10.5 mg/kg
[18] = male, Sprague Dawley, rat, plasma, po, 21 mg/kg
[19] = male, Sprague Dawley, rat, plasma, po, 42 mg/kg
[20] = male, Sprague Dawley, rat, plasma, po, 168 mg/kg
[21] = naringin 168 mg kg^-1 p.o. single dose, rat

What does the source list for `O=C1C[C@@H](c2ccc(O)cc2)Oc2cc(O)cc(O)c21` [naringenin, Naringenin]?
AUC(0-inf) [1]: 2390 ± 1110 ng·h/mL; AUC(0-t) [1]: 2360 ± 1120 ng·h/mL; Tmax [1]: 0.04 ± 0.021 h; clearance [1]: 390 mL/min/kg; half-life [1]: 2.45 ± 1.38 h; Cmax [2]: 3980 ± 2510 ng/mL; MRT last [1]: 3.36 ± 2.11 h; MRT inf [1]: 3.66 ± 2.14 h; Vd [3]: 88.3 ± 113 L/kg; half-life (both sexes, Sprague Dawley, rat, plasma, oral, naringenin in rats, studies overall): 2.31 ± 1.21 h; Tmax [4]: 0.043 ± 0.025 h; half-life [4]: 2.91 ± 1.87 h; Cmax [5]: 2430 ± 1550 ng/mL; AUC(0-inf) [6]: 3010 ± 982 ng·h/mL; AUC(0-t) [6]: 2990 ± 986 ng·h/mL; Cmax [7]: 5540 ± 2400 ng/mL; CL [8]: 327 ± 288 mL/min/kg; Vd [8]: 93.4 ± 121 L/kg; lag-time in plasma (rats, after p.o. naringin): 0.701 ± 0.523 h; time for concentrations to increase to Cmax after the lag-time (rats, after p.o. naringin): 2.93 ± 2.01 h

What does the source list for `C[C@@H]1O[C@@H](O[C@H]2[C@H](Oc3cc(O)c4c(c3)O[C@H](c3ccc(O)cc3)CC4=O)O[C@H](CO)[C@@H](O)[C@@H]2O)[C@H](O)[C@H](O)[C@H]1O` [naringin, Naringin]?
AUC(0-inf) [1]: 18100 ± 7550 ng·h/mL; AUC(0-t) [1]: 18100 ± 7580 ng·h/mL; Tmax [1]: 0.03 h; clearance [1]: 48.3 mL/min/kg; half-life [1]: 1.62 ± 1.18 h; Cmax [2]: 88500 ± 51000 ng/mL; MRT last [1]: 0.496 ± 0.382 h; MRT inf [1]: 0.57 ± 0.476 h; Vd [3]: 8.29 ± 10 L/kg; half-life (both sexes, Sprague Dawley, rat, plasma, po): < 1 h; AUC(0-inf) [9]: 35.7 ± 29.3 ng·h/mL; AUC(0-t) [9]: 32.7 ± 27.7 ng·h/mL; Tmax [9]: 1.5 ± 2.35 h; half-life [9]: 0.328 ± 0.275 h; Cmax (both sexes, Sprague Dawley, rat, plasma, po, 10.5 mg/kg, read-out: Cmax): 31.7 ± 13.2 ng/mL; MRT last [9]: 0.741 ± 0.423 h; MRT inf [9]: 1.22 ± 0.297 h; AUC(0-inf) [10]: 38.4 ± 21.4 ng·h/mL; AUC(0-t) [10]: 34.2 ± 20.3 ng·h/mL; Tmax [10]: 1.53 ± 2.36 h; half-life [10]: 0.5 ± 0.493 h; Cmax (both sexes, Sprague Dawley, rat, plasma, po, 21 mg/kg, read-out: Cmax): 30.5 ± 16.3 ng/mL; MRT last [10]: 1.18 ± 0.399 h; MRT inf [10]: 1.42 ± 0.621 h; AUC(0-inf) [11]: 45.1 ± 55.4 ng·h/mL; AUC(0-t) [11]: 40.7 ± 51.3 ng·h/mL; Tmax [11]: 1.18 ± 1.78 h; half-life [11]: 0.463 ± 0.598 h; Cmax (both sexes, Sprague Dawley, rat, plasma, po, 42 mg/kg, read-out: Cmax): 52.6 ± 78.8 ng/mL; MRT last [11]: 1.1 ± 0.381 h; MRT inf [11]: 1.24 ± 0.292 h; AUC(0-inf) [12]: 145 ± 66.4 ng·h/mL; AUC(0-t) [12]: 140 ± 66.3 ng·h/mL; Tmax [12]: 2.85 ± 4.06 h; half-life [12]: 0.738 ± 0.781 h; MRT last [12]: 2.01 ± 0.451 h; MRT inf [12]: 1.96 ± 1.08 h; Tmax (both sexes, Sprague Dawley, rat, plasma, po, rats, nonclinical p.o. administration studies overall): 1.77 ± 2.64 h; AUC(0-inf) [4]: 14800 ± 7280 ng·h/mL; AUC(0-t) [4]: 14800 ± 7290 ng·h/mL; Tmax [4]: 0.03 h; half-life [4]: 1.6 ± 0.972 h; Cmax [5]: 70200 ± 60000 ng/mL; AUC(0-inf) [13]: 34.6 ± 31.9 ng·h/mL; AUC(0-t) [13]: 31.9 ± 29.9 ng·h/mL; Tmax [13]: 1.05 ± 0.622 h; half-life [13]: 0.465 ± 0.344 h; Cmax (female, Sprague Dawley, rat, plasma, po, 10.5 mg/kg, read-out: Cmax): 27.2 ± 11.2 ng/mL; AUC(0-inf) [14]: 51.9 ± 15.7 ng·h/mL; AUC(0-t) [14]: 47 ± 15.6 ng·h/mL; Tmax [14]: 1.55 ± 2.49 h; half-life [14]: 0.675 ± 0.57 h; Cmax (female, Sprague Dawley, rat, plasma, po, 21 mg/kg, read-out: Cmax): 31.1 ± 16 ng/mL; AUC(0-inf) [15]: 15.3 ± 11.6 ng·h/mL; AUC(0-t) [15]: 13.3 ± 10.3 ng·h/mL; Tmax [15]: 1.7 ± 2.42 h; half-life [15]: 0.55 ± 0.813 h; Cmax (female, Sprague Dawley, rat, plasma, po, 42 mg/kg, read-out: Cmax): 12.6 ± 9.42 ng/mL; AUC(0-inf) [16]: 142 ± 52.4 ng·h/mL; AUC(0-t) [16]: 137 ± 50.7 ng·h/mL; Tmax [16]: 1.95 ± 3.39 h; half-life [16]: 0.85 ± 0.854 h; Cmax (female, Sprague Dawley, rat, plasma, po, 168 mg/kg, read-out: Cmax): 95.8 ± 54.4 ng/mL; AUC(0-inf) [6]: 21400 ± 6930 ng·h/mL; AUC(0-t) [6]: 21300 ± 7030 ng·h/mL; Tmax [6]: 0.03 h; half-life [6]: 1.65 ± 1.48 h; Cmax [7]: 106000 ± 37600 ng/mL; AUC(0-inf) [17]: 36.9 ± 30.2 ng·h/mL; AUC(0-t) [17]: 33.5 ± 28.8 ng·h/mL; Tmax [17]: 1.95 ± 3.4 h; half-life [17]: 0.19 ± 0.063 h; Cmax (male, Sprague Dawley, rat, plasma, po, 10.5 mg/kg, read-out: Cmax): 36.1 ± 14.9 ng/mL; AUC(0-inf) [18]: 24.8 ± 18 ng·h/mL; AUC(0-t) [18]: 21.4 ± 16.5 ng·h/mL; Tmax [18]: 1.5 ± 2.52 h; half-life [18]: 0.325 ± 0.381 h; Cmax (male, Sprague Dawley, rat, plasma, po, 21 mg/kg, read-out: Cmax): 29.9 ± 18.5 ng/mL; AUC(0-inf) [19]: 74.9 ± 67.6 ng·h/mL; AUC(0-t) [19]: 68.1 ± 62.7 ng·h/mL; Tmax [19]: 0.65 ± 0.762 h; half-life [19]: 0.375 ± 0.354 h; Cmax (male, Sprague Dawley, rat, plasma, po, 42 mg/kg, read-out: Cmax): 92.7 ± 99.4 ng/mL; AUC(0-inf) [20]: 149 ± 84.3 ng·h/mL; AUC(0-t) [20]: 144 ± 80.3 ng·h/mL; Tmax [20]: 3.75 ± 4.85 h; half-life [20]: 0.625 ± 0.781 h; Cmax (male, Sprague Dawley, rat, plasma, po, 168 mg/kg, read-out: Cmax): 113 ± 102 ng/mL; Vd (naringin 10.5 mg kg^-1 p.o. single dose, rat): 174 ± 98.3 L/kg; Vd (naringin 21 mg kg^-1 p.o. single dose, rat): 322 ± 239 L/kg; Vd (naringin 42 mg kg^-1 p.o. single dose, rat): 586 ± 394 L/kg; Cmax [21]: 104 ± 77.5 ng/mL; Vd [21]: 639 ± 657 L/kg
